The record followed here is ChEMBL document CHEMBL1201862, “PubChem BioAssay data set” (2004).

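The compound was tested at five concentrations on cells cultured in 96-well plates, with a 48-hour exposure period. Abbreviation: GI50, concentration required for 50% inhibition of growth.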 The source made the active and inactive calls. No stated cut-off is given here; in the data, active = GI50 up to about 1.1 µM and inactive = higher.

Some test systems named below: CAKI-1; DU-145; HOP-92; Hs-578T; LOX IMVI; Malme-3M; NCI-H23; NCI-H460; OVCAR-5; PC-3; SF-539; SK-MEL-28; SNB-19; SR; TK-10; UACC-62; UO-31; HCC 2998; MOLT-4; SNB-75.
What all share (test): NCI tumour cell line growth inhibition, 48 h

For `CN(C)CCCNc1cc(O)c2c(c1O)C(=O)c1ccccc1C2=O`, the GI50 was 13 µM (inactive) in the assay on CAKI-1; 14.8 µM (inactive) in the assay on DU-145; 12.3 µM (inactive) in the assay with HOP-92; 29.2 µM (inactive) in the assay on Hs-578T; 9.53 µM (inactive) with LOX IMVI; 31.3 µM (inactive) in the assay with Malme-3M. In addition, the GI50 with NCI-H23 is 13.3 µM (inactive); in the assay on NCI-H460 it was 6.46 µM (inactive); in the assay with OVCAR-5, 18.9 µM (inactive); with PC-3, 13.8 µM (inactive); in the assay with SF-539, 12.1 µM (inactive); in the assay with SK-MEL-28, 16.4 µM (inactive). The GI50 in the assay on SNB-19 was 6.9 µM (inactive); with SR, 3.01 µM (inactive); in the assay on TK-10, 10.2 µM (inactive); with UACC-62 it was 18.4 µM (inactive); in the assay on UO-31 it was 1.69 µM (inactive).

On to `COc1ccc(-c2ccc(C(=O)C=P(c3ccccc3)(c3ccccc3)c3ccccc3)cc2)cc1`, for which the GI50 in the assay on CAKI-1 was 11.4 µM (inactive); with DU-145 it was 14.5 µM (inactive); with HCC 2998, 1.79 µM (inactive); with HOP-92, 4.72 µM (inactive); in the assay on Hs-578T, 23 µM (inactive); in the assay on LOX IMVI, 13.2 µM (inactive). For the same compound, the GI50 in the assay with MOLT-4 was 4.59 µM (inactive); with Malme-3M, 18.7 µM (inactive); in the assay with NCI-H23, 18.8 µM (inactive); in the assay on NCI-H460, 8.13 µM (inactive); in the assay with OVCAR-5 it was 16.6 µM (inactive); with PC-3 it was 7.55 µM (inactive). For the same compound, the GI50 is 17.7 µM (inactive) in the assay with SF-539; 14.8 µM (inactive) in the assay with SK-MEL-28; 25.6 µM (inactive) with SNB-19; 16.2 µM (inactive) in the assay on SR; 10.8 µM (inactive) with TK-10; 15.2 µM (inactive) in the assay with UACC-62. Also, the GI50 with UO-31 is 3.13 µM (inactive).

For `O=C1/C(=C/Cc2ccco2)N=C(c2ccccc2)N1c1nc2c(Cl)cc(Cl)cc2s1`, the GI50 in the assay with CAKI-1 is 32.6 µM (inactive); in the assay on DU-145 it was 27.4 µM (inactive); in the assay with HCC 2998, 31.7 µM (inactive); in the assay on HOP-92 it was 27.8 µM (inactive); in the assay on Hs-578T it was 23.6 µM (inactive); in the assay with LOX IMVI it was 25.4 µM (inactive). For the same compound, the GI50 in the assay with MOLT-4 is 1.02 µM (active); in the assay with NCI-H460, 32.2 µM (inactive); in the assay with OVCAR-5, 52.2 µM (inactive); in the assay on PC-3, 28.3 µM (inactive); with SF-539, 23 µM (inactive); in the assay with SK-MEL-28 it was 57.1 µM (inactive). For the same compound, the GI50 in the assay with SNB-19 is 34.3 µM (inactive); with SR it was 14.9 µM (inactive); in the assay on TK-10, 42.7 µM (inactive); in the assay on UACC-62, 27.5 µM (inactive); in the assay with UO-31, 26.2 µM (inactive).

`OC1CN2Cc3cc4c(cc3[C@]13C=C[C@@H](O)CC23)OCO4` (stereo not given in full): the GI50 in the assay on CAKI-1 is 11.9 µM (inactive); with DU-145 it was 8.69 µM (inactive); with HOP-92, 21.3 µM (inactive); in the assay on Hs-578T it was 57.5 µM (inactive); with LOX IMVI it was 30 µM (inactive); in the assay with MOLT-4, 16.6 µM (inactive). Moreover, the GI50 in the assay on Malme-3M is 35.8 µM (inactive); in the assay on NCI-H23, 36.1 µM (inactive); in the assay on NCI-H460 it was 14.4 µM (inactive); in the assay on OVCAR-5, 23.9 µM (inactive); with PC-3, 27.6 µM (inactive); in the assay with SF-539 it was 45.6 µM (inactive). For the same compound, the GI50 in the assay on SK-MEL-28 was 48.4 µM (inactive); in the assay on SNB-19, 22.2 µM (inactive); with SR, 12.4 µM (inactive); in the assay on TK-10, 23.2 µM (inactive); in the assay with UACC-62, 33 µM (inactive); in the assay with UO-31, 33.6 µM (inactive).

As for `O=C1c2ccccc2-c2[nH]c3cn[nH]c(=O)c3c21`, the GI50 in the assay on CAKI-1 was 91.6 µM (inactive); with DU-145, > 100 µM (inactive); in the assay with HOP-92, 16.4 µM (inactive); with Hs-578T it was 64.9 µM (inactive); in the assay on LOX IMVI, 78.5 µM (inactive); with MOLT-4 it was > 100 µM (inactive). Further, the GI50 in the assay on Malme-3M was > 100 µM (inactive); with NCI-H23, > 100 µM (inactive); in the assay on NCI-H460, 64.9 µM (inactive); with OVCAR-5, > 100 µM (inactive); in the assay with PC-3, > 100 µM (inactive); in the assay with SF-539, > 100 µM (inactive). Moreover, the GI50 in the assay with SNB-19 was > 100 µM (inactive); in the assay on SNB-75, 42.6 µM (inactive); with SR, 45 µM (inactive); in the assay on TK-10, > 100 µM (inactive); in the assay with UACC-62, 45.3 µM (inactive); in the assay with UO-31, 23.8 µM (inactive).

`CO/C=C(/C(=O)OC)c1ccccc1[C@H]1C[C@@H]1c1ccccc1`: the GI50 was 16 µM (inactive) in the assay on CAKI-1; 27.2 µM (inactive) with DU-145; 20.6 µM (inactive) in the assay on HCC 2998; 21.3 µM (inactive) in the assay with HOP-92; 33.7 µM (inactive) in the assay on Hs-578T; 30.1 µM (inactive) in the assay on MOLT-4. Further, the GI50 was 13.1 µM (inactive) in the assay on Malme-3M; 23.2 µM (inactive) in the assay on NCI-H23; 19.7 µM (inactive) in the assay with NCI-H460; 73.8 µM (inactive) with OVCAR-5; 22.8 µM (inactive) with PC-3; 21.2 µM (inactive) in the assay on SF-539. The GI50 with SK-MEL-28 is 25.8 µM (inactive); in the assay on SNB-19, 48.3 µM (inactive); with SR, 14.2 µM (inactive); with TK-10, 28 µM (inactive); with UACC-62 it was 14.9 µM (inactive); with UO-31, 29.4 µM (inactive).

Turning to `CON(C)C(=O)[C@H]1C[C@@]1(C)CO`, the GI50 in the assay on CAKI-1, with DU-145, in the assay with HCC 2998, in the assay with HOP-92, in the assay with Hs-578T and in the assay on MOLT-4 was > 100 µM (inactive) each time. Also, the GI50 in the assay with Malme-3M, with NCI-H23, with NCI-H460, with OVCAR-5, with PC-3 and in the assay on SK-MEL-28 was > 100 µM (inactive) each time. In addition, the GI50 with SNB-19, in the assay with SNB-75, in the assay on SR, in the assay on TK-10, in the assay on UACC-62 and in the assay with UO-31 was > 100 µM (inactive) each time.

Take `C[n+]1c(-c2ccc(/C=N\NC(=O)c3ccc(C(=O)N/N=C/c4ccc(-c5cn6ccsc6[n+]5C)cc4)cc3)cc2)cn2ccsc21`: the GI50 in the assay with CAKI-1 was 18.7 µM (inactive); in the assay on DU-145, 18.5 µM (inactive); in the assay on HCC 2998, 34 µM (inactive); with HOP-92, 14.8 µM (inactive); in the assay on Hs-578T it was 19.9 µM (inactive); with MOLT-4, 15.2 µM (inactive). The GI50 with Malme-3M is 21 µM (inactive); in the assay with NCI-H23 it was 17.8 µM (inactive); in the assay with NCI-H460, 19.4 µM (inactive); in the assay with OVCAR-5, 17.3 µM (inactive); in the assay with PC-3 it was 17.4 µM (inactive); in the assay with SF-539 it was 23.6 µM (inactive). The GI50 in the assay with SNB-19 is 24.6 µM (inactive); with SNB-75, 23.3 µM (inactive); with SR, 17.3 µM (inactive); in the assay with TK-10, 19.9 µM (inactive); with UACC-62, 20 µM (inactive); in the assay with UO-31 it was 15.2 µM (inactive).

`O=C(/C=C/c1ccccc1)c1cc(CN2CCOCC2)c(O)c(CN2CCOCC2)c1`: the GI50 in the assay on CAKI-1 was 2.26 µM (inactive); with DU-145, 16 µM (inactive); in the assay with HCC 2998 it was 18.6 µM (inactive); in the assay on HOP-92, 12.1 µM (inactive); in the assay on Hs-578T it was 35.6 µM (inactive); in the assay with LOX IMVI it was 4.65 µM (inactive). Further, the GI50 in the assay on MOLT-4 was 16.7 µM (inactive); with NCI-H23 it was 22.5 µM (inactive); in the assay on NCI-H460, 6.71 µM (inactive); in the assay with OVCAR-5 it was 14.6 µM (inactive); in the assay with PC-3, 19.2 µM (inactive); in the assay on SF-539, 15.1 µM (inactive). For the same compound, the GI50 in the assay on SK-MEL-28 was 14.5 µM (inactive); in the assay with SNB-19 it was 94 µM (inactive); with SNB-75 it was 19.3 µM (inactive); with SR, 5.51 µM (inactive); in the assay on TK-10 it was 20.6 µM (inactive); with UACC-62 it was 17 µM (inactive). Besides, the GI50 in the assay on UO-31 was 15.4 µM (inactive).

Regarding `Cc1nc2ccccc2n1Cc1nnc(-c2ccccc2)o1`, the GI50 with DU-145 is > 100 µM (inactive); in the assay with HCC 2998, > 100 µM (inactive); with HOP-92 it was > 100 µM (inactive); in the assay on Hs-578T it was > 100 µM (inactive); with LOX IMVI, 25.1 µM (inactive); in the assay with MOLT-4 it was 41.8 µM (inactive). For the same compound, the GI50 is > 100 µM (inactive) with Malme-3M; > 100 µM (inactive) in the assay on NCI-H23; 91 µM (inactive) in the assay with NCI-H460; > 100 µM (inactive) in the assay on OVCAR-5; > 100 µM (inactive) in the assay on PC-3; 27.2 µM (inactive) in the assay on SF-539. Further, the GI50 is > 100 µM (inactive) in the assay with SK-MEL-28; > 100 µM (inactive) in the assay with SNB-19; 46.3 µM (inactive) in the assay with SNB-75; 43.6 µM (inactive) with SR; > 100 µM (inactive) in the assay on TK-10; > 100 µM (inactive) with UACC-62. In addition, the GI50 with UO-31 was > 100 µM (inactive).

For `COc1c(C)c2c(c(O)c1C/C=C(\C)CCC(=O)O)C(=O)OC2` [MYCOPHENOLIC ACID], the GI50 with CAKI-1 is 0.805 µM (active); with DU-145, > 100 µM (inactive); with HCC 2998, 3.94 µM (inactive); in the assay with HOP-92, 4.68 µM (inactive); in the assay on Hs-578T, 2.51 µM (inactive); in the assay with LOX IMVI, 0.401 µM (active). Also, the GI50 was 0.326 µM (active) in the assay on MOLT-4; 0.471 µM (active) in the assay with NCI-H23; 0.488 µM (active) in the assay with NCI-H460; 7.05 µM (inactive) with OVCAR-5; 1.1 µM (active) in the assay with PC-3; 1.46 µM (inactive) in the assay with SF-539. Further, the GI50 in the assay on SK-MEL-28 was 1.91 µM (inactive); with SNB-19, 0.706 µM (active); in the assay on SNB-75, 6.81 µM (inactive); with SR, 0.446 µM (active); with TK-10 it was 17.4 µM (inactive); in the assay on UACC-62, 0.881 µM (active). Besides, the GI50 with UO-31 is 3.1 µM (inactive).
